Test results reported in BindingDB's records for patent US20250313563 (The Broad Institute, 2025).
Where “and” joins values, the source holds several entries; their conditions need not be identical. Equal entries are not always repeated.

Legend:
[1] = biological target: Glycogen synthase kinase-3 beta (Homo sapiens, UniProt P49841); assay: TR-FRET Assay
Method in brief: (§1)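 Signal is measured as TR-FRET between a terbium anti-phospho-Ser641 antibody and streptavidin-d2, added after an EDTA quench. Compounds are preincubated 30 min in assay buffer.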

[2] = biological target: Glycogen synthase kinase-3 alpha (Homo sapiens, UniProt P49840); assay: TR-FRET Assay
Glycogen synthase kinase-3 alpha, sequence (P49840 whole entry): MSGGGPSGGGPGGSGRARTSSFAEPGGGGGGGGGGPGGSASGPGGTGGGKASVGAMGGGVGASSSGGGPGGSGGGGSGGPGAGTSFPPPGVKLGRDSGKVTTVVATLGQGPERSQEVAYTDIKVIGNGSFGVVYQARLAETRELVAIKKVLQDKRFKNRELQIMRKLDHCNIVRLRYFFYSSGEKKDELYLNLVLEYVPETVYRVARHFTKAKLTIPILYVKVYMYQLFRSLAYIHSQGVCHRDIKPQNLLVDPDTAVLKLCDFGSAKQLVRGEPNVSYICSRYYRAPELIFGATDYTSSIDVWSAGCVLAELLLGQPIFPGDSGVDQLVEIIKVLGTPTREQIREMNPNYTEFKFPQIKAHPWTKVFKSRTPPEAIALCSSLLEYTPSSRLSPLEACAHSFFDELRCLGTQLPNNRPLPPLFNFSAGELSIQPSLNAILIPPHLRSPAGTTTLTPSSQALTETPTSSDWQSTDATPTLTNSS
Method in brief: as §1

Glycogen synthase kinase-3 beta, sequence (P49841 whole entry): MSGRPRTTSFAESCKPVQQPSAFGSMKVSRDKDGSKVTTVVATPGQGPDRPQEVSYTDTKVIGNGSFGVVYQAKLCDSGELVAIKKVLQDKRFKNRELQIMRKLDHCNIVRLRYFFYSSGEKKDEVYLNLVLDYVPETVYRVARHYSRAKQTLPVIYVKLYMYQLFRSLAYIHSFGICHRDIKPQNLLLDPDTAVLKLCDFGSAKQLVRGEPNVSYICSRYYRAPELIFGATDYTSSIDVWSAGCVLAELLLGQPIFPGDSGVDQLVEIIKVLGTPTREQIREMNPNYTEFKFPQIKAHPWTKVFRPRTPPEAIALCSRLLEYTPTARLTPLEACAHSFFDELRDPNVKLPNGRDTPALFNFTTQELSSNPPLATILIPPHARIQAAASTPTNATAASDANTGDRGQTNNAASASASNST

Compound	IC50 [1]	IC50 [2]
Cn1ccc(S(=O)(=O)N2CCC3(CC2)C2=C(N=NC2)NC2=C3C(=O)CC(C)(C)[C@H]2F)n1 [US20250313563, Compound 951709]	100 to 1000 nM	< 100 nM
CCC1(c2cccc(-c3ccnc4c3CCCC4)c2)C2=C(N=NC2)NC2=C1C(=O)C(C)(C)C2 (stereo unspecified) [US20250313563, Compound 952752]	100 to 1000 nM	< 100 nM
Cn1cc(-c2cccc([C@]3(C)C4=C(CC(C)(C)CC4=O)NC4=C3C(CC(C)(C)C)N=N4)c2)cn1 (stereo partly specified) [US20250313563, Compound 126393]	100 to 1000 nM	1000 to 5000 nM
CC1(C)CC(=O)C2=C(C1)NC1=C(CN=N1)C21CCC2(CCC(=O)N2C(=O)OC(C)(C)C)CC1 (stereo unspecified) [US20250313563, Compound 912217]	> 5000 nM	1000 to 5000 nM
CC1(C)CC(=O)C2=C(C1)NC1=C(CN=N1)C21CCOCC1 [US20250313563, Compound 826648]	100 to 1000 nM	100 to 1000 nM
Cc1ccc(S(=O)(=O)N2CCC3(CC2)C2=C(N=NC2)NC2=C3C(=O)CC(C)(C)C2)cc1Cl [US20250313563, Compound 947241]	< 100 nM	< 100 nM
CC[C@@]1(c2ccccc2)C2=CN=NC2NC2=C1C(=O)C[C@@](C)(C(F)(F)F)C2 (stereo partly specified) [US20250313563, Compound 819569]	1000 to 5000 nM	100 to 1000 nM
CC1(C)CC(=O)C2=C(C1)NC1=C(CN=N1)C21CCN(S(=O)(=O)C2CC2)CC1 [US20250313563, Compound 901470]	< 100 nM and 100 to 1000 nM	< 100 nM and 100 to 1000 nM
CC[C@]1(c2cccc(N(C)c3ncccn3)c2)C2=CN=NC2NC2=C1C(=O)NC(C)(C)C2 (stereo partly specified) [US20250313563, Compound 943964]	< 100 nM and 1000 to 5000 nM	< 100 nM and 100 to 1000 nM
CC1(C(F)(F)F)CC(=O)C2=C(C1)NC1=C(CN=N1)C21CCOCC1 (stereo unspecified) [US20250313563, Compound 901458]	100 to 1000 nM	100 to 1000 nM
CC(=O)N1CC2(C1)CC1(CO2)C2=C(N=NC2)NC2=C1C(=O)CC(C)(C)C2 (stereo unspecified) [US20250313563, Compound 913058]	< 100 nM and 100 to 1000 nM	< 100 nM
CC1(C)CC(=O)C2=C(C1)NC1=C(CN=N1)C21CCc2c(Cl)cccc21 (stereo unspecified) [US20250313563, Compound 816795]	100 to 1000 nM	< 100 nM
CC[C@@]1(c2cccc(C(F)(F)F)c2)C2=C(N=NC2)NC2=C1C(=O)N(C)C2 [US20250313563, Compound 945368]	> 5000 nM	> 5000 nM
CC[C@@]1(c2cccc(-c3cnn(-c4ccncn4)c3)c2)C2=CN=NC2NC2=C1C(=O)NC(C)(C)C2 (stereo partly specified) [US20250313563, Compound 952016]	1000 to 5000 nM	100 to 1000 nM
CCC1(c2cccc(S(=O)(=O)C(C)C)c2)C2=C(CC(C)(C)NC2=O)NC2N=NC(C(F)(F)F)=C21 (stereo unspecified) [US20250313563, Compound 947800]	< 100 nM	< 100 nM
Cc1cccc2c1CC[C@]21C2=C(N=NC2)NC2=C1C(=O)CC(C)(C)C2 [US20250313563, Compound 913137]	> 5000 nM	> 5000 nM

Compound	IC50 [1]	IC50 [2]
CC(C)(C)CC1=C2C(N=N1)NC1=C(C(=O)CC(C)(C)C1)[C@@]21CCCc2ccccc21 (stereo partly specified) [US20250313563, Compound 811596]	100 to 1000 nM	1000 to 5000 nM
CC[C@@]1(c2cccc(C3=C4CC=C(C)N=C4N=CC3)c2)C2=CN=NC2NC2=C1C(=O)NC(C)(C)C2 (stereo partly specified) [US20250313563, Compound 948143]	100 to 1000 nM	< 100 nM
CC[C@@]1(c2cccc(Br)c2)C2=CN=NC2NC2=C1C(=O)C[C@@H](C)C2 (stereo partly specified) [US20250313563, Compound 810485]	> 5000 nM	> 5000 nM
C[C@@H]1C[C@@]2(CCN1S(C)(=O)=O)C1=C(N=NC1)NC1=C2C(=O)CC(C)(C)C1 [US20250313563, Compound 918315]	100 to 1000 nM	100 to 1000 nM
CC[C@]1(c2cccc(-c3ccnc(C)c3)c2)C2=CN=NC2NC2=C1C(=O)N[C@]1(CCOC1)C2 (stereo partly specified) [US20250313563, Compound 948141]	> 5000 nM	1000 to 5000 nM
Cc1csc(S(=O)(=O)N2CCC3(CC2)C2=C(N=NC2)NC2=C3C(=O)CC(C)(C)C2)n1 [US20250313563, Compound 947897]	< 100 nM	< 100 nM
CC[C@]1(c2cccc(-c3ccnc(C)c3)c2)C2=CN=NC2NC2=C1C(=O)N[C@]1(CCCOC1)C2 (stereo partly specified) [US20250313563, Compound 948146]	> 5000 nM	1000 to 5000 nM
CC1(C)CC(=O)C2=C(NC3=C(CN=N3)C23CCN(S(=O)(=O)C2CC2)CC3)C1F (stereo unspecified) [US20250313563, Compound 950814]	< 100 nM	< 100 nM
CC[C@@]1(c2cccc(N3CCOCC3)c2)C2=C(CC(C)(C)CC2=O)NC2N=NC(C(F)(F)F)=C21 (stereo partly specified) [US20250313563, Compound 816886]	1000 to 5000 nM	1000 to 5000 nM
Cc1ccc(C(=O)N2CC3(C2)CC2(CO3)C3=C(N=NC3)NC3=C2C(=O)CC(C)(C)C3)c(C)c1 (stereo unspecified) [US20250313563, Compound 947294]	100 to 1000 nM	< 100 nM
C[C@@]1(c2ccccc2)C2=C(N=NC2)NC2=C1C(=O)CC1(CCCC1)C2 [US20250313563, Compound 792339]	> 5000 nM	> 1700 nM
CC1(C)CC(=O)C2=C(C1)NC1=C(CN=N1)C21CN(S(=O)(=O)CC2CC2)C1 [US20250313563, Compound 929440]	< 100 nM	< 100 nM
CC1(C)CC(=O)C2=C(C1)NC1=C(CN=N1)C21CN(c2ccccc2)C1 [US20250313563, Compound 948298]	< 100 nM	< 100 nM
CC1(C)CC(=O)C2=C(C1)NC1N=NC(C(F)(F)F)=C1[C@]21CCc2c(F)cccc21 (stereo partly specified) [US20250313563, Compound 806569]	< 100 nM	< 100 nM
O=C1C[C@@]2(CCOC2)CC2=C1C1(CCOCC1)C1=C(N=NC1)N2 [US20250313563, Compound 901475]	100 to 1000 nM	100 to 1000 nM
Cc1cnccc1[C@H]1CC[C@@]2(CC1)C1=C(N=NC1)NC1=C2C(=O)CC(C)(C)C1 [US20250313563, Compound 949319]	< 100 nM	< 100 nM

Now from value to compound:

IC50 [1]	IC50 [2]	Compound
< 100 nM	< 100 nM	CCC1(c2cccc(-c3ccncc3O)c2)C2=C(CC(C)(C)CC2=O)NC2N=NC(C)=C21 (stereo unspecified) [US20250313563, Compound 944024]
< 100 nM	< 100 nM	CCC1(c2cccc(-c3ccncc3S(C)(=O)=O)c2)C2=CN=NC2NC2=C1C(=O)CC(C)(C)C2 (stereo unspecified) [US20250313563, Compound 947569]
< 100 nM	< 100 nM	CCC1(c2cccc(N(c3cccnc3)C3CC3)c2)C2=CN=NC2NC2=C1C(=O)CC(C)(C)C2 (stereo unspecified) [US20250313563, Compound 913274]
100 to 1000 nM	< 100 nM	CCCc1cc(-c2cccc(C3(CC)C4=CN=NC4NC4=C3C(=O)CC(C)(C)C4)c2)ccn1 (stereo unspecified) [US20250313563, Compound 945467]
< 100 nM and 100 to 1000 nM	< 100 nM	CC[C@@]1(c2cccc(-c3cn(C)nc3C)c2)C2=CN=NC2NC2=C1C(=O)CC(C)(C)C2 (stereo partly specified) [US20250313563, Compound 945546]
> 5000 nM	> 5000 nM	CC[C@@]1(c2cc(-c3cnn(C)c3)ccc2F)C2=CN=NC2NC2=C1C(=O)CC(C)(C)C2 (stereo partly specified) [US20250313563, Compound 909223]
> 5000 nM	1000 to 5000 nM	CC[C@]1(c2cccc(-c3ccncc3O)c2)C2=CN=NC2NC2=C1C(=O)CC(C)(C)C2 (stereo partly specified) [US20250313563, Compound 945728]
< 100 nM	< 100 nM	CC[C@]1(c2cccc(-c3ccncc3C)c2)C2=C(CC(C)(C)CC2=O)NC2N=NC(C(F)(F)F)=C21 (stereo partly specified) [US20250313563, Compound 947324]
< 100 nM	< 100 nM	CCC1(c2cccc(-c3cncn3C(C)C)c2)C2=CN=NC2NC2=C1C(=O)CC(C)(C)C2F (stereo unspecified) [US20250313563, Compound 963155]
100 to 1000 nM	< 100 nM	CC[C@@]1(c2cccc(N(C)c3cc(C)ccn3)c2)C2=CN=NC2NC2=C1C(=O)CC(C)(C)C2 (stereo partly specified) [US20250313563, Compound 945609]
100 to 1000 nM	< 100 nM	CC[C@@]1(c2cccc(C3=CNN4CC=CN=C34)c2)C2=CN=NC2NC2=C1C(=O)NC(C)(C)C2 (stereo partly specified) [US20250313563, Compound 950830]
< 100 nM and 100 to 1000 nM	< 100 nM and 100 to 1000 nM	CC[C@@]1(c2cccc(-c3ccn(C)n3)c2)C2=C(CC(C)(C)CC2=O)NC2N=NC(C)=C21 (stereo partly specified) [US20250313563, Compound 913030]
> 5000 nM	100 to 1000 nM	CC[C@@]1(c2cccc(-c3ccnc(OC)c3F)c2)C2=CN=NC2NC2=C1C(=O)NC(C)(C)C2 (stereo partly specified) [US20250313563, Compound 948531]
100 to 1000 nM	< 100 nM	CCC1(c2cccc(-c3cc(C)nn3C)c2)C2=CN=NC2NC2=C1C(=O)CC(C)(C)C2 (stereo unspecified) [US20250313563, Compound 929402]
100 to 1000 nM	100 to 1000 nM	CC[C@@]1(c2cccc(-c3cncn3C)c2)C2=CN=NC2NC2=C1C(=O)NC(C)(C)C2 (stereo partly specified) [US20250313563, Compound 947820]
> 5000 nM	1000 to 5000 nM	CC[C@H]1CCN1c1cccc([C@]2(CC)C3=CN=NC3NC3=C2C(=O)CC(C)(C)C3)c1 (stereo partly specified) [US20250313563, Compound 911972]
> 5000 nM	> 5000 nM	CC[C@@]1(c2cccc(-c3ccnn3C)c2)C2=CN=NC2NC2=C1C(=O)CC(C)(C)[C@H]2F (stereo partly specified) [US20250313563, Compound 957508]
1000 to 5000 nM	100 to 1000 nM	CCN(c1cccnc1)c1cccc([C@@]2(CC)C3=CN=NC3NC3=C2C(=O)CC(C)(C)C3)c1 (stereo partly specified) [US20250313563, Compound 917088]
100 to 1000 nM and > 5000 nM	< 100 nM and 100 to 1000 nM	CC[C@@]1(c2cccc(-c3cnn(C)c3C(F)(F)F)c2)C2=CN=NC2NC2=C1C(=O)NC(C)(C)C2 (stereo partly specified) [US20250313563, Compound 948815]
100 to 1000 nM	100 to 1000 nM	CC[C@]1(c2cc(-c3ccncc3)ccc2C)C2=CN=NC2NC2=C1C(=O)CC(C)(C)C2 (stereo partly specified) [US20250313563, Compound 893323]
100 to 1000 nM	< 100 nM	CCc1cc(N(C)c2cccc(C3(CC)C4=CN=NC4NC4=C3C(=O)CC(C)(C)C4)c2)ccn1 (stereo unspecified) [US20250313563, Compound 917147]
